Values of other authors in patent EP4437048B1, “ENERGY CURABLE INK, COATING AND PRIMER COMPOSITIONS CONTAINING HIGHLY ALKOXYLATED GLYCEROL ACRYLATES FOR RETORT PACKAGING APPLICATIONS” (Sun Chemical B.V., priority 2022, dated 2024).

Conditions: specific migration limit of the acrylate (Table 7)

In the case of `C=CC(=O)OCC(CC)(COCC(CC)(COC(=O)C=C)COC(=O)C=C)COC(=O)C=C` [Di-TMPTA], the SML is given as 10 ppb.
